Measured values from PubChem BioAssay (NCI).
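Five concentrations, 48 hours, 96-well plates. At the TGI there is no net growth.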

Experiments:
Experiment in all cases: NCI-60 cell line screen, 48 h
786-0 renal = system: 786-0 renal
A498 renal = system: A498 renal
A549 NSCLC = system: A549 NSCLC
ACHN renal = system: ACHN renal
CAKI-1 renal = system: CAKI-1 renal
CCRF-CEM leukemia = system: CCRF-CEM leukemia
COLO 205 colon = system: COLO 205 colon
DMS 114 small cell lung = system: DMS 114 small cell lung
EKVX NSCLC = system: EKVX NSCLC
HCC-2998 colon = system: HCC-2998 colon
HCT-116 colon = system: HCT-116 colon
HCT-15 colon = system: HCT-15 colon
HOP-18 NSCLC = system: HOP-18 NSCLC
HOP-62 NSCLC = system: HOP-62 NSCLC
HT29 colon = system: HT29 colon
IGROV1 ovarian = system: IGROV1 ovarian
K-562 leukemia = system: K-562 leukemia
KM12 colon = system: KM12 colon
KM20L2 colon = system: KM20L2 colon
LOX IMVI melanoma = system: LOX IMVI melanoma
LXFL 529 NSCLC = system: LXFL 529 NSCLC
M14 melanoma = system: M14 melanoma
M19-MEL melanoma = system: M19-MEL melanoma
MALME-3M melanoma = system: MALME-3M melanoma
MOLT-4 leukemia = system: MOLT-4 leukemia
NCI-H226 lung = system: NCI-H226 lung
NCI-H23 lung = system: NCI-H23 lung
NCI-H460 lung = system: NCI-H460 lung
NCI-H522 lung = system: NCI-H522 lung
OVCAR-3 ovarian = system: OVCAR-3 ovarian
OVCAR-4 ovarian = system: OVCAR-4 ovarian
OVCAR-5 ovarian = system: OVCAR-5 ovarian
OVCAR-8 ovarian = system: OVCAR-8 ovarian
RXF 393 renal = system: RXF 393 renal
RXF-631 renal = system: RXF-631 renal
SF-268 CNS = system: SF-268 CNS
SF-295 CNS = system: SF-295 CNS
SF-539 CNS = system: SF-539 CNS
SK-MEL-2 melanoma = system: SK-MEL-2 melanoma
SK-MEL-28 melanoma = system: SK-MEL-28 melanoma
SK-MEL-5 melanoma = system: SK-MEL-5 melanoma
SK-OV-3 ovarian = system: SK-OV-3 ovarian
SN12C renal = system: SN12C renal
SNB-19 CNS = system: SNB-19 CNS
SNB-75 CNS = system: SNB-75 CNS
SNB-78 CNS = system: SNB-78 CNS
SW-620 colon = system: SW-620 colon
TK-10 renal = system: TK-10 renal
U251 CNS = system: U251 CNS
UACC-257 melanoma = system: UACC-257 melanoma
UACC-62 melanoma = system: UACC-62 melanoma
XF 498 CNS = system: XF 498 CNS
DLD-1 colon = system: DLD-1 colon
DMS 273 small cell lung = system: DMS 273 small cell lung
HOP-92 NSCLC = system: HOP-92 NSCLC
RPMI-8226 leukemia = system: RPMI-8226 leukemia
SR leukemia = system: SR leukemia
UO-31 renal = system: UO-31 renal
HL-60(TB) leukemia = system: HL-60(TB) leukemia

Measured: TGI

CN(C)CCn1cnc2sc3ccccc3c21
86.6 µM: SNB-75 CNS
> 100 µM: 786-0 renal | A498 renal | A549 NSCLC | ACHN renal | CAKI-1 renal | CCRF-CEM leukemia | COLO 205 colon | DMS 114 small cell lung | EKVX NSCLC | HCC-2998 colon | HCT-116 colon | HCT-15 colon | HOP-18 NSCLC | HOP-62 NSCLC | HT29 colon | IGROV1 ovarian | K-562 leukemia | KM12 colon | KM20L2 colon | LOX IMVI melanoma | LXFL 529 NSCLC | M14 melanoma | M19-MEL melanoma | MALME-3M melanoma | MOLT-4 leukemia | NCI-H226 lung | NCI-H23 lung | NCI-H460 lung | NCI-H522 lung | OVCAR-3 ovarian | OVCAR-4 ovarian | OVCAR-5 ovarian | OVCAR-8 ovarian | RXF 393 renal | RXF-631 renal | SF-268 CNS | SF-295 CNS | SF-539 CNS | SK-MEL-2 melanoma | SK-MEL-28 melanoma | SK-MEL-5 melanoma | SK-OV-3 ovarian | SN12C renal | SNB-19 CNS | SNB-78 CNS | SW-620 colon | TK-10 renal | U251 CNS | UACC-257 melanoma | UACC-62 melanoma | XF 498 CNS

Cc1cc(C)nc(Sc2c([N+](=O)[O-])ncn2C)n1
85.4 µM: HOP-18 NSCLC
> 100 µM: 786-0 renal | A498 renal | A549 NSCLC | ACHN renal | CAKI-1 renal | CCRF-CEM leukemia | COLO 205 colon | DLD-1 colon | DMS 114 small cell lung | DMS 273 small cell lung | EKVX NSCLC | HCC-2998 colon | HCT-116 colon | HOP-62 NSCLC | HOP-92 NSCLC | HT29 colon | IGROV1 ovarian | K-562 leukemia | KM12 colon | LOX IMVI melanoma | LXFL 529 NSCLC | M14 melanoma | M19-MEL melanoma | MALME-3M melanoma | MOLT-4 leukemia | NCI-H226 lung | NCI-H23 lung | NCI-H460 lung | NCI-H522 lung | OVCAR-3 ovarian | OVCAR-4 ovarian | OVCAR-5 ovarian | OVCAR-8 ovarian | RPMI-8226 leukemia | RXF-631 renal | SF-268 CNS | SF-295 CNS | SF-539 CNS | SK-MEL-2 melanoma | SK-MEL-28 melanoma | SK-MEL-5 melanoma | SK-OV-3 ovarian | SN12C renal | SNB-19 CNS | SNB-75 CNS | SNB-78 CNS | SR leukemia | SW-620 colon | TK-10 renal | U251 CNS | UACC-257 melanoma | UACC-62 melanoma | UO-31 renal | XF 498 CNS

N#CSCc1nc2ccc(Cl)cc2c(-c2ccccc2)[n+]1[O-]
42.9 µM: HL-60(TB) leukemia
87.7 µM: K-562 leukemia
55.2 µM: OVCAR-4 ovarian
41.6 µM: MOLT-4 leukemia
42.1 µM: M14 melanoma
72.5 µM: DMS 114 small cell lung
35 µM: HT29 colon
27.7 µM: SK-MEL-28 melanoma
29.1 µM: HCC-2998 colon
33.6 µM: HOP-18 NSCLC
30.8 µM: KM20L2 colon
32.1 µM: 786-0 renal
80.6 µM: U251 CNS
39.7 µM: HCT-116 colon
64.5 µM: NCI-H226 lung
42.3 µM: SK-MEL-2 melanoma
30.2 µM: SW-620 colon
39 µM: OVCAR-5 ovarian
39.2 µM: CCRF-CEM leukemia
31.9 µM: LOX IMVI melanoma
44.4 µM: OVCAR-3 ovarian
30.5 µM: ACHN renal
40.9 µM: EKVX NSCLC
39.5 µM: SN12C renal
26.8 µM: LXFL 529 NSCLC
36.9 µM: UACC-62 melanoma
26.4 µM: RXF 393 renal
32.7 µM: UO-31 renal
54.4 µM: RPMI-8226 leukemia
33 µM: XF 498 CNS
88.2 µM: SNB-75 CNS
76.1 µM: SR leukemia
47.9 µM: CAKI-1 renal
51.9 µM: KM12 colon
62.5 µM: MALME-3M melanoma
34.7 µM: HOP-92 NSCLC
> 100 µM: A498 renal | A549 NSCLC | COLO 205 colon | HOP-62 NSCLC | M19-MEL melanoma | NCI-H460 lung | RXF-631 renal | SF-295 CNS | SNB-19 CNS | SNB-78 CNS | TK-10 renal | UACC-257 melanoma
32.5 µM: HCT-15 colon
61.7 µM: SF-268 CNS
38.5 µM: OVCAR-8 ovarian

COc1ccc(C2C(C#N)=C(O)NC(O)=C2C#N)cc1OC
> 100 µM: A498 renal | A549 NSCLC | CAKI-1 renal | COLO 205 colon | DMS 273 small cell lung | EKVX NSCLC | HCC-2998 colon | HCT-116 colon | HCT-15 colon | HOP-18 NSCLC | HOP-62 NSCLC | HOP-92 NSCLC | HT29 colon | IGROV1 ovarian | KM12 colon | KM20L2 colon | LXFL 529 NSCLC | M14 melanoma | M19-MEL melanoma | MALME-3M melanoma | MOLT-4 leukemia | NCI-H522 lung | OVCAR-3 ovarian | OVCAR-5 ovarian | OVCAR-8 ovarian | RPMI-8226 leukemia | RXF-631 renal | SF-268 CNS | SF-295 CNS | SF-539 CNS | SK-MEL-2 melanoma | SK-MEL-28 melanoma | SK-MEL-5 melanoma | SK-OV-3 ovarian | SN12C renal | SNB-19 CNS | SNB-75 CNS | SNB-78 CNS | SR leukemia | SW-620 colon | U251 CNS | UO-31 renal | XF 498 CNS

COc1ccc2c(c1)CCc1c(C(C)=O)c3ccccc3n1C2
85.1 µM: SNB-75 CNS
62.6 µM: SF-539 CNS
74.4 µM: MALME-3M melanoma
75.4 µM: RXF 393 renal
51.2 µM: XF 498 CNS
91.3 µM: HOP-62 NSCLC
> 100 µM: 786-0 renal | A549 NSCLC | ACHN renal | CAKI-1 renal | CCRF-CEM leukemia | COLO 205 colon | DLD-1 colon | DMS 114 small cell lung | DMS 273 small cell lung | HCC-2998 colon | HCT-116 colon | HL-60(TB) leukemia | HOP-18 NSCLC | HOP-92 NSCLC | HT29 colon | IGROV1 ovarian | K-562 leukemia | KM12 colon | LOX IMVI melanoma | LXFL 529 NSCLC | M14 melanoma | M19-MEL melanoma | MOLT-4 leukemia | NCI-H23 lung | NCI-H460 lung | NCI-H522 lung | OVCAR-3 ovarian | OVCAR-4 ovarian | OVCAR-5 ovarian | OVCAR-8 ovarian | RXF-631 renal | SF-268 CNS | SF-295 CNS | SK-MEL-28 melanoma | SK-MEL-5 melanoma | SN12C renal | SNB-19 CNS | SNB-78 CNS | SR leukemia | SW-620 colon | TK-10 renal | U251 CNS | UACC-257 melanoma | UACC-62 melanoma | UO-31 renal
